Laboratory results: PubChem BioAssay AID2060623 (Molecular Pharmacology Branch, DTP, NCI, 2025)
Several values for one entry are separate records, joined by “and”; a condition that tells them apart may be missing. Equal entries are not always repeated.

System: 227483-062-R1-J1-PDC complex spheroids with HUVEC/MSC, viability
Test: Anticancer human tumor 227483-062-R1-J1-PDC patient-derived pancreatic carcinoma cell line growth inhibition [CLK]
Details: for viability, T/C: stronger effect = lower value
Method in brief: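 Multi-cell-type spheroids combined patient-derived tumor cells with HUVEC endothelial cells and human mesenchymal stem cells. Paired agents were dosed in half-log steps down from about clinical Cmax, or from 10 microM where Cmax was unknown.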

[1] = curve of first compound, second compound 0.0316 µM
[2] = curve of first compound, second compound 0.1 µM
[3] = curve of first compound, second compound 0.316 µM
[4] = curve of first compound, second compound 1 µM
[5] = curve of first compound, second compound 3.16 µM
[6] = curve of first compound, second compound 10 µM
[7] = second compound 0.0316 µM, first compound 0.0316 µM
[8] = second compound 0.0316 µM, first compound 0.1 µM
[9] = second compound 0.0316 µM, first compound 0.316 µM
[10] = second compound 0.0316 µM, first compound 1 µM
[11] = second compound 0.0316 µM, first compound 3.16 µM
[12] = second compound 0.0316 µM, first compound 10 µM
[13] = second compound 0.1 µM, first compound 0.0316 µM
[14] = second compound 0.1 µM, first compound 0.1 µM
[15] = second compound 0.1 µM, first compound 0.316 µM
[16] = second compound 0.1 µM, first compound 1 µM
[17] = second compound 0.1 µM, first compound 3.16 µM
[18] = second compound 0.1 µM, first compound 10 µM
[19] = second compound 0.316 µM, first compound 0.0316 µM
[20] = second compound 0.316 µM, first compound 0.1 µM
[21] = second compound 0.316 µM, first compound 0.316 µM
[22] = second compound 0.316 µM, first compound 1 µM
[23] = second compound 0.316 µM, first compound 3.16 µM
[24] = second compound 0.316 µM, first compound 10 µM
[25] = second compound 1 µM, first compound 0.0316 µM
[26] = second compound 1 µM, first compound 0.1 µM
[27] = second compound 1 µM, first compound 0.316 µM
[28] = second compound 1 µM, first compound 1 µM
[29] = second compound 1 µM, first compound 3.16 µM
[30] = second compound 1 µM, first compound 10 µM
[31] = second compound 3.16 µM, first compound 0.0316 µM
[32] = second compound 3.16 µM, first compound 0.1 µM
[33] = second compound 3.16 µM, first compound 0.316 µM
[34] = second compound 3.16 µM, first compound 1 µM
[35] = second compound 3.16 µM, first compound 3.16 µM
[36] = second compound 3.16 µM, first compound 10 µM
[37] = second compound 10 µM, first compound 0.0316 µM
[38] = second compound 10 µM, first compound 0.1 µM
[39] = second compound 10 µM, first compound 0.316 µM
[40] = second compound 10 µM, first compound 1 µM
[41] = second compound 10 µM, first compound 3.16 µM
[42] = second compound 10 µM, first compound 10 µM
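Further: spheroids exposed to compounds for seven days before readout.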
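Wherever viability, T/C is given: percent of DMSO vehicle control luminescence as 100% viability.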

CC(CO)NC(=O)c1cc(-c2ccc(Cl)cc2)nn(-c2cnn(C)c2)c1=O (stereo not given) + CNC(=O)c1ccc(Nc2nc(OC3CCCC3)c3c(-c4ccc5nc(C)oc5c4)c[nH]c3n2)c(OC)c1
IC50 [1]: > 10000 nM
IC50 [2]: > 10000 nM
IC50 [3]: > 10000 nM
IC50 [4]: > 10000 nM
IC50 [5]: < 31.6 nM
IC50 [6]: < 31.6 nM
viability, T/C [7]: 100%
viability, T/C [8]: 80.3%
viability, T/C [9]: 103%
viability, T/C [10]: 99.4%
viability, T/C [11]: 86.6%
viability, T/C [12]: 84.7%
viability, T/C [13]: 109%
viability, T/C [14]: 102%
viability, T/C [15]: 96.1%
viability, T/C [16]: 91.4%
viability, T/C [17]: 78.3%
viability, T/C [18]: 82.6%
viability, T/C [19]: 80.2%
viability, T/C [20]: 90.7%
viability, T/C [21]: 85.5%
viability, T/C [22]: 77.5%
viability, T/C [23]: 83.7%
viability, T/C [24]: 70.8%
viability, T/C [25]: 62.6%
viability, T/C [26]: 68.2%
viability, T/C [27]: 61.4%
viability, T/C [28]: 54.1%
viability, T/C [29]: 64.9%
viability, T/C [30]: 56.9%
viability, T/C [31]: 45.5%
viability, T/C [32]: 50.3%
viability, T/C [33]: 46%
viability, T/C [34]: 45.5%
viability, T/C [35]: 49%
viability, T/C [36]: 38.3%
viability, T/C [37]: 36.5%
viability, T/C [38]: 41.8%
viability, T/C [39]: 51.3%
viability, T/C [40]: 37.3%
viability, T/C [41]: 30.6%
viability, T/C [42]: 36%

CC(Nc1ccc2c(c1)OCCn1cc(N3C(=O)OCC3C(F)F)nc1-2)C(N)=O (stereo not given)
viability, T/C (compound 0.0316 µM): 89.1% and 95.7%
viability, T/C (compound 0.1 µM): 104% and 89.6%
viability, T/C (compound 0.316 µM): 82.3% and 76.5%
viability, T/C (compound 1 µM): 82.4% and 85.9%
viability, T/C (compound 3.16 µM): 69.8% and 72.3%
viability, T/C (compound 10 µM): 82.9% and 69.1%
IC50 (curve of compound): > 10000 nM

C=CC(=O)Nc1cc(Nc2nccc(-c3cn(C)c4ccccc34)n2)c(OC)cc1N(C)CCN(C)C
viability, T/C (compound 0.000949 µM): 99.8% and 83%
viability, T/C (compound 0.003 µM): 104% and 92.1%
viability, T/C (compound 0.00949 µM): 103% and 119%
viability, T/C (compound 0.03 µM): 113% and 109%
viability, T/C (compound 0.0949 µM): 95.1% and 102%
viability, T/C (compound 0.3 µM): 84.3% and 81.2%
IC50 (curve of compound): > 300 nM

Nc1ccn(C2OC(CO)C(O)C2(F)F)c(=O)n1 (stereo not given) + CN1CCN(c2cc(C(=O)Nc3cc4cc(-c5cnn(C)c5)ccc4cn3)ccn2)CC1
IC50 [1]: 72.5 nM
IC50 [2]: < 31.6 nM
IC50 [3]: < 31.6 nM
IC50 [4]: < 31.6 nM
IC50 [5]: < 31.6 nM
IC50 [6]: < 31.6 nM
viability, T/C [7]: 76%
viability, T/C [8]: 39%
viability, T/C [9]: 32.1%
viability, T/C [10]: 35.6%
viability, T/C [11]: 27.6%
viability, T/C [12]: 24.1%
viability, T/C [13]: 36.7%
viability, T/C [14]: 25.1%
viability, T/C [15]: 24.1%
viability, T/C [16]: 21%
viability, T/C [17]: 22.5%
viability, T/C [18]: 15%
viability, T/C [19]: 4.9%
viability, T/C [20]: 3.69%
viability, T/C [21]: 3.08%
viability, T/C [22]: 2.47%
viability, T/C [23]: 2.75%
viability, T/C [24]: 1.97%
viability, T/C [25]: 1.05%
viability, T/C [26]: 1.34%
viability, T/C [27]: 2.72%
viability, T/C [28]: 2.08%
viability, T/C [29]: 1.09%
viability, T/C [30]: 1.14%
viability, T/C [31]: 2.12%
viability, T/C [32]: 2.2%
viability, T/C [33]: 3.37%
viability, T/C [34]: 1.88%
viability, T/C [35]: 1.71%
viability, T/C [36]: 1.79%
viability, T/C [37]: 0.96%
viability, T/C [38]: 0.85%
viability, T/C [39]: 1.06%
viability, T/C [40]: 1.19%
viability, T/C [41]: 0.9%
viability, T/C [42]: 0.79%

C=CC(=O)N1CCN(c2nc(=O)n(-c3c(C)ccnc3C(C)C)c3nc(-c4c(O)cccc4F)c(F)cc23)C(C)C1 (stereo not given)
viability, T/C (compound 0.0316 µM): 88.6% and 88%
viability, T/C (compound 0.1 µM): 83.2% and 92.8%
viability, T/C (compound 0.316 µM): 86% and 85.4%
viability, T/C (compound 1 µM): 95.2% and 125%
viability, T/C (compound 3.16 µM): 110% and 104%
viability, T/C (compound 10 µM): 109% and 95.8%
IC50 (curve of compound): > 10000 nM

C#Cc1c(F)ccc2cc(O)cc(-c3ncc4c(N5CC6CCC(C5)N6)nc(OCC56CCCN5CC(F)C6)nc4c3F)c12 (stereo not given) + CNC(=O)c1ccc(Nc2nc(OC3CCCC3)c3c(-c4ccc5nc(C)oc5c4)c[nH]c3n2)c(OC)c1
IC50 [1]: > 10000 nM
IC50 [2]: > 10000 nM
IC50 [3]: > 10000 nM
IC50 [4]: 5620 nM
IC50 [5]: 301 nM
IC50 [6]: < 31.6 nM
viability, T/C [7]: 101%
viability, T/C [8]: 110%
viability, T/C [9]: 112%
viability, T/C [10]: 131%
viability, T/C [11]: 122%
viability, T/C [12]: 87.7%
viability, T/C [13]: 96.2%
viability, T/C [14]: 120%
viability, T/C [15]: 116%
viability, T/C [16]: 111%
viability, T/C [17]: 127%
viability, T/C [18]: 68.5%
viability, T/C [19]: 106%
viability, T/C [20]: 97.7%
viability, T/C [21]: 94.8%
viability, T/C [22]: 100%
viability, T/C [23]: 87.8%
viability, T/C [24]: 58.9%
viability, T/C [25]: 78.3%
viability, T/C [26]: 71.9%
viability, T/C [27]: 74.7%
viability, T/C [28]: 61.9%
viability, T/C [29]: 61.1%
viability, T/C [30]: 41.6%
viability, T/C [31]: 49.2%
viability, T/C [32]: 57.4%
viability, T/C [33]: 51%
viability, T/C [34]: 41.9%
viability, T/C [35]: 43.8%
viability, T/C [36]: 33.5%
viability, T/C [37]: 42.1%
viability, T/C [38]: 38%
viability, T/C [39]: 43.7%
viability, T/C [40]: 34.6%
viability, T/C [41]: 34.8%
viability, T/C [42]: 28.3%

CCc1c2c(nc3ccc(O)cc13)-c1cc3c(c(=O)n1C2)COC(=O)[C@]3(O)CC
viability, T/C (compound 0.00316 µM): 77.7% and 88.3%
viability, T/C (compound 0.01 µM): 94.4% and 86.2%
viability, T/C (compound 0.0316 µM): 79.4% and 58.8%
viability, T/C (compound 0.1 µM): 55.3% and 49%
viability, T/C (compound 0.316 µM): 54.1% and 53%
viability, T/C (compound 1 µM): 36.8% and 33.1%
IC50 (curve of compound): 207 nM and 71.7 nM

CN1CCN(c2cc(C(=O)Nc3cc4cc(-c5cnn(C)c5)ccc4cn3)ccn2)CC1
viability, T/C (compound 0.0316 µM): 95.7% [middle of 12 runs]
viability, T/C (compound 0.1 µM): 62.8% [middle of 12 runs]
viability, T/C (compound 0.316 µM): 5.79% [middle of 12 runs]
viability, T/C (compound 1 µM): 1.97% [middle of 12 runs]
viability, T/C (compound 3.16 µM): 3.33% [middle of 12 runs]
viability, T/C (compound 10 µM): 2.87% [middle of 12 runs]
IC50 (compound alone, run of 09/18/2023): 129 nM [middle of 11 runs]

COc1cccc2c1C(=O)c1c(O)c3c(c(O)c1C2=O)CC(O)(C(=O)CO)CC3OC1CC(N)C(O)C(C)O1 (stereo not given)
viability, T/C (compound 0.0316 µM): 90% and 75.6%
viability, T/C (compound 0.1 µM): 108% and 58%
viability, T/C (compound 0.316 µM): 54.2% and 42.7%
viability, T/C (compound 1 µM): 34.5% and 24.4%
viability, T/C (compound 3.16 µM): 7.31% and 2.77%
viability, T/C (compound 10 µM): 8.24% and 9.84%
IC50 (curve of compound): 483 nM and 188 nM

CCCS(=O)(=O)Nc1ccc(F)c(C(=O)c2c[nH]c3ncc(-c4ccc(Cl)cc4)cc23)c1F + CNC(=O)c1ccc(Nc2nc(OC3CCCC3)c3c(-c4ccc5nc(C)oc5c4)c[nH]c3n2)c(OC)c1
IC50 [1]: > 10000 nM
IC50 [2]: > 10000 nM
IC50 [3]: 9220 nM
IC50 [4]: 7060 nM
IC50 [5]: 241 nM
IC50 [6]: < 31.6 nM
viability, T/C [7]: 87.8%
viability, T/C [8]: 94%
viability, T/C [9]: 96.5%
viability, T/C [10]: 101%
viability, T/C [11]: 105%
viability, T/C [12]: 66.2%
viability, T/C [13]: 102%
viability, T/C [14]: 101%
viability, T/C [15]: 107%
viability, T/C [16]: 108%
viability, T/C [17]: 114%
viability, T/C [18]: 56.2%
viability, T/C [19]: 78.2%
viability, T/C [20]: 93.2%
viability, T/C [21]: 96%
viability, T/C [22]: 118%
viability, T/C [23]: 126%
viability, T/C [24]: 46%
viability, T/C [25]: 64.7%
viability, T/C [26]: 80%
viability, T/C [27]: 84.1%
viability, T/C [28]: 85.7%
viability, T/C [29]: 85.8%
viability, T/C [30]: 36.9%
viability, T/C [31]: 53.1%
viability, T/C [32]: 52.6%
viability, T/C [33]: 49.6%
viability, T/C [34]: 36.1%
viability, T/C [35]: 28.1%
viability, T/C [36]: 24.7%
viability, T/C [37]: 39%
viability, T/C [38]: 40.2%
viability, T/C [39]: 45.1%
viability, T/C [40]: 35.5%
viability, T/C [41]: 33.5%
viability, T/C [42]: 24.3%
